The record followed here is ChEMBL document CHEMBL1201862, “PubChem BioAssay data set” (2004).

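Cells were grown in 96-well plates and exposed to each compound for 48 hours at five concentrations; endpoints were interpolated linearly between bracketing concentrations, or set to the highest concentration if not reached. At the GI50, growth is halved.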 Activity calls are given as the source filed them. No stated cut-off is given here; in the data, active = GI50 up to about 1.1 µM and inactive = higher. Where only a bound is given, the exact number is not on record here.

Common to all, as to assay: NCI tumour cell line growth inhibition, 48 h
Assay [1] relates to Hs-578T.
In assay [2] the test system is NCI-H23.
Assay [3] has as its system SK-MEL-2.
For assay [4], the system named is BT-549.
Assay [5] has as its system HOP-62.
The subject of assay [6] is MDA-MB-231.
Assay [7] relates to KM12.
The test system of assay [8] is MOLT-4.
In assay [9] the test system is MCF7.
The subject of assay [10] is U-251.
Assay [11] deals with HCT-15.
Assay [12] has as its system EKVX.
Assay [13] concerns Malme-3M.
In assay [14] the test system is MDA-N.
In assay [15] the test system is A549.
The subject of assay [16] is OVCAR-5.
Assay [17] concerns NCI-H522.
Assay [18] deals with RPMI-8226.
Assay [19] deals with 786-0.
In assay [20] the test system is NCI/ADR-RES.

As for `CC1CCCCNC1=S` (configuration not stated), the GI50 in assay [1], in [2], in [3], in assay [4], in assay [5] and in assay [6] was > 10 µM (inactive) throughout. The GI50 was > 10 µM (inactive) in assay [7]; > 10 µM (inactive) in assay [8]; > 10 µM (inactive) in assay [9]; > 10 µM (inactive) in [10]; above 10 µM in assay [11]; > 10 µM (inactive) in assay [12]. In addition, the GI50 in assay [13], in assay [14], in [15] and in [16] was > 10 µM (inactive) each time.
Turning to `C#CCNC(CS)C(=O)O` (configuration not stated), the GI50 in assay [1], in assay [2], in assay [17], in [3], in assay [18] and in assay [4] was > 100 µM (inactive) each time. In addition, the GI50 in [5], in assay [6], in [19], in [20], in [7] and in assay [8] was > 100 µM (inactive) each time. Besides, the GI50 in [10] was > 100 µM (inactive); in assay [11] it was above 100 µM; in assay [12], > 100 µM (inactive); in assay [13] it was > 100 µM (inactive); in assay [15], > 100 µM (inactive); in [16], > 100 µM (inactive).
For the compound `COc1cc2c3c(cc(Cl)nc3c1OC)C(=O)C(=O)N2`, the GI50 in assay [1] is 30.4 µM (inactive); in assay [2], 16.7 µM (inactive); in assay [17] it was 4.22 µM (inactive); in [3], 14.1 µM (inactive); in assay [18], 2.68 µM (inactive); in assay [4], 16.2 µM (inactive). The GI50 was 19.6 µM (inactive) in assay [5]; 1.94 µM (inactive) in assay [6]; 5.94 µM (inactive) in assay [19]; 22.5 µM (inactive) in [20]; 16.4 µM (inactive) in assay [7]; 2.34 µM (inactive) in assay [8]. Also, the GI50 was 2.05 µM (inactive) in assay [9]; 16.5 µM (inactive) in assay [10]; 19.2 µM in assay [11]; 6.81 µM (inactive) in [12]; 2.06 µM (inactive) in assay [13]; 19.7 µM (inactive) in [15]. In addition, the GI50 in assay [16] is 18 µM (inactive).
Take `NNC(=O)c1c(SCc2ccccc2)nc2c3ccccc3ccn12`: the GI50 in assay [1] was 80.4 µM (inactive); in [2], 21.2 µM (inactive); in assay [17], 15.5 µM (inactive); in [3], 28.3 µM (inactive); in [4] it was 21.4 µM (inactive); in assay [5], 10.2 µM (inactive). Also, the GI50 was 29.4 µM (inactive) in assay [6]; 26.5 µM (inactive) in assay [20]; 22.6 µM (inactive) in assay [7]; 10.9 µM (inactive) in assay [8]; 24.2 µM (inactive) in [9]; 17.7 µM (inactive) in assay [10]. Moreover, the GI50 is 5.66 µM in assay [11], 19.5 µM (inactive) in assay [12], 23.4 µM (inactive) in assay [15] and 20.5 µM (inactive) in assay [16].
For `Cn1c2ccccc2n2c(=O)c(-c3ccc(O)cc3)nnc12`, the GI50 in assay [1] was 34.8 µM (inactive); in assay [2], > 100 µM (inactive); in assay [17] it was 96.8 µM (inactive); in [3], > 100 µM (inactive); in [4] it was 56 µM (inactive); in assay [5], 42.4 µM (inactive). Moreover, the GI50 in assay [6] was 31.2 µM (inactive); in [19], 40.2 µM (inactive); in [20], > 100 µM (inactive); in [7] it was > 100 µM (inactive); in assay [8], > 100 µM (inactive); in assay [9], > 100 µM (inactive). For the same compound, the GI50 was 28.2 µM (inactive) in assay [10]; above 100 µM in assay [11]; 21.2 µM (inactive) in [12]; > 100 µM (inactive) in assay [13]; > 100 µM (inactive) in [15]; > 100 µM (inactive) in assay [16].
For `O=P(O)(Cc1ccccc1)c1ccccc1-c1ccccc1`, the GI50 in assay [1], in assay [2], in assay [17], in assay [3], in assay [4] and in assay [5] was > 100 µM (inactive) throughout. Besides, the GI50 in [6] was > 100 µM (inactive); in assay [19] it was > 100 µM (inactive); in assay [20], > 100 µM (inactive); in assay [7], 77.3 µM (inactive); in assay [8], > 100 µM (inactive); in assay [9], > 100 µM (inactive). Further, the GI50 in assay [10] is 57.1 µM (inactive); in assay [11] it was above 100 µM; in [12] it was 41.9 µM (inactive); in [13], > 100 µM (inactive); in assay [14], > 100 µM (inactive); in assay [15] it was 56 µM (inactive). Moreover, the GI50 in [16] was > 100 µM (inactive).
Take `Cc1ccc(S(=O)(=O)NC(C(=O)O)C(C)C)cc1` (configuration not stated): the GI50 in assay [1], in assay [2], in assay [17], in assay [3], in assay [4] and in assay [5] was > 100 µM (inactive) each time. Also, the GI50 in assay [6], in [19], in [20], in assay [7], in assay [8] and in [10] was > 100 µM (inactive) each time. In addition, the GI50 was above 100 µM in [11]; > 100 µM (inactive) in [12]; > 100 µM (inactive) in assay [13]; > 100 µM (inactive) in assay [14]; > 100 µM (inactive) in [15]; > 100 µM (inactive) in [16].
With `COc1ccc2c(c1)C(=O)CC1c3cnccc3C(=O)N21` (configuration not stated), the GI50 was > 100 µM (inactive) in [2]; > 100 µM (inactive) in [17]; > 100 µM (inactive) in assay [3]; > 92 µM (inactive) in [18]; > 100 µM (inactive) in assay [4]; > 27.8 µM (inactive) in [5]. Further, the GI50 in assay [6], in [19], in [20], in assay [7], in [8] and in [9] was > 100 µM (inactive) each time. The GI50 in assay [10] is > 73.5 µM (inactive); in [11], above 100 µM; in assay [12], > 79.4 µM (inactive); in assay [13], > 100 µM (inactive); in assay [14], > 100 µM (inactive); in assay [15], > 100 µM (inactive). For the same compound, the GI50 in assay [16] was > 100 µM (inactive).
Turning to `Cc1nc2nnc(CCCCCCCCc3nnc4nc(C)[nH]n34)n2[nH]1`, the GI50 is > 100 µM (inactive) in assay [2]; 60.5 µM (inactive) in assay [17]; > 100 µM (inactive) in assay [3]; > 100 µM (inactive) in assay [4]; > 100 µM (inactive) in [5]; > 100 µM (inactive) in assay [6]. Further, the GI50 is > 100 µM (inactive) in assay [19]; > 100 µM (inactive) in [20]; 66.1 µM (inactive) in assay [7]; > 100 µM (inactive) in [8]; > 100 µM (inactive) in [9]; > 100 µM (inactive) in assay [10]. Also, the GI50 was above 100 µM in [11]; > 100 µM (inactive) in assay [12]; > 100 µM (inactive) in assay [13]; > 100 µM (inactive) in assay [14]; > 100 µM (inactive) in assay [15]; > 100 µM (inactive) in assay [16].
Consider `Oc1ccccc1/C=N/c1ccc(-c2nc3ccccc3s2)cc1`, for which the GI50 is 30.7 µM (inactive) in [1]; 31.8 µM (inactive) in assay [2]; 17.3 µM (inactive) in [17]; 21.3 µM (inactive) in assay [3]; 23.2 µM (inactive) in assay [18]; 31.8 µM (inactive) in [4]. For the same compound, the GI50 in assay [5] was 19.1 µM (inactive); in assay [19], 29.2 µM (inactive); in assay [20], 25.6 µM (inactive); in assay [7], 22 µM (inactive); in [8], 22.7 µM (inactive); in assay [10], 30.9 µM (inactive). The GI50 in assay [11] was 24.4 µM; in assay [12] it was 21.3 µM (inactive); in assay [13] it was 37.1 µM (inactive); in assay [14], 29.6 µM (inactive); in [15], 36.7 µM (inactive); in assay [16], 28.3 µM (inactive).
As for `Cn1c2ccccc2n2c(=O)c3cc([N+](=O)[O-])ccc3c(C#N)c12`, the GI50 in assay [1], in assay [2], in [17], in [3], in assay [18] and in assay [4] was > 100 µM (inactive) in each case. Further, the GI50 in [5] is 27.5 µM (inactive); in assay [19], 22.3 µM (inactive); in assay [20], > 100 µM (inactive); in assay [7] it was > 100 µM (inactive); in assay [8] it was > 100 µM (inactive); in assay [9], > 100 µM (inactive). Besides, the GI50 in assay [10] was > 100 µM (inactive); in [11] it was above 100 µM; in [12] it was > 100 µM (inactive); in [14], > 100 µM (inactive); in [15], > 100 µM (inactive); in assay [16] it was > 100 µM (inactive).
